A short description of data set [1]: Cytotoxicity, MTT method, mock-infected HeLa cells. It counts as cell-based. To be noted: human, concentration reducing viability of mock-infected HeLa cells by 50%. On the procedure:
(§1) HeLa cells were seeded in 96-well plates at a density of 5 × 10^5 cells/mL, in minimum essential medium with Earle’s salts (MEM-E), L-glutamine, 1 mM sodium pyruvate, and 25 mg/L kanamycin, supplemented with 10% fetal bovine serum (FBS). Vero-76 and LLC-MK2 cells were seeded in 96-well plates at a density of 5 × 10^5 cells/mL in Dulbecco’s modified eagle medium (D-MEM) with L-glutamine and 25 mg/L kanamycin, complemented with 10% FBS. Cell cultures were then incubated in a humidified, 5% CO2 atmosphere at 37 °C, with or without serial dilutions of analyzed compounds. The medium used for the cytotoxic assay, as well as for antiviral assays, included 1% of the proper serum. Cell viability was determined after 72–120h at 37 °C by MTT method.
(§2) The size of cell growth/viability and viral multiplication at each tested drug concentration was expressed as percentage of untreated controls. Concentrations resulting in 50% inhibition (CC50 or EC50) were determined by linear regression analysis.

Data set [2] deals with CVB3. Briefly: Virus yield reduction assay (YRA), CVB3 in Vero-76 cells. It counts as cell-based, human enterovirus B. The conditions noted are these: m.o.i. 0.1, 72 h; for Reduction of CVB3 viral titers (trend over concentrations): non-cytotoxic concentrations (100, 20, 4, 0.8 µM). On the procedure: (§3) Vero-76 and LL-MKC cells were inoculated with CVB3, CVB4, or E9 at an m.o.i. of 0.1 in maintenance medium and compounds at non-cytotoxic concentrations. After the adsorption period (2 h) at 37 °C and 5% CO2, the inoculum was removed and replaced with fresh medium containing the same concentration of compounds. After 72 h for CVB3 and CVB4 or 120 h for E9 at 37 °C and 5% CO2, each sample was collected and diluted with serial passages, starting from 10^−1, up to 10^−10. The titers of the supernatants were quantified by standard plaque assay. NM 107 (2’-C-Methyl-Cytidine) and pleconaril were employed as reference compounds.

For another data set, the system named is EV-D68. Description: Inhibition of EV-D68-induced cytopathogenicity, MTT method. It counts as cell-based, human enterovirus D 68. To be noted: Enterovirus D, EVD68, 72 h; HeLa cells, MTT method after 3 days p.i. The protocol:
(§4) After a 72 or 120 h incubation at 37 °C, cell viability was verified by the MTT method, as previously described. The activity of compounds against CVB3, CVB4, CVB5, and E9 was determined in infected cell monolayers by plaque-reduction assays, as previously reported. Briefly, the monolayer of Vero-76 cells or LLC-MK2 (E9) was grown overnight on a 24-well plate. The cells were then infected for 2 h with 250 μL of proper virus dilutions to obtain 50–100 PFU/well. Following removal of the unadsorbed virus, 500 μL of the medium (D-MEM with L-glutamine, 4500 mg/L D-glucose, and 1% inactivated FBS) containing 0.75% methyl-cellulose, with serial dilutions of quinoxalines, was added. The overlay was also added to untreated wells (non-infection controls). Cultures were incubated at 37 °C for 3 (CVB3, CVB4, CVB5) or 5 days (E9) and then fixed with PBS containing 50% ethanol and 0.8% crystal violet, washed and air-dried. Plaques were then counted.
as §2

Data set [3] deals with CVB4. Description: Virus yield reduction assay (YRA), CVB4 in Vero-76 cells. In kind it is cell-based, human enterovirus B. The conditions noted are these: m.o.i. 0.1, 72 h. On the procedure:
as §3

For data set [4], the system named is E9. Briefly: Plaque-reduction assay, E9 in LLC-MK2 cells. In kind it is cell-based, human enterovirus B. To be noted: Enterovirus B; for EC50: concentration reducing plaque number by 50%. The protocol: as §4, with “The activity of compounds against EV-A71 and D68 was based on inhibition of virus-induced cytopathogenicity in HeLa and Vero-76 cells, respectively, acutely infected at a multiplicity of infection (m.o.i.) of 0.01. After” for “After”
as §2

In data set [5] the test system is CVB4. Briefly: Plaque-reduction assay, CVB4 in Vero-76 cells. It counts as cell-based, human enterovirus B. On the procedure: as §4, with “The activity of compounds against EV-A71 and D68 was based on inhibition of virus-induced cytopathogenicity in HeLa and Vero-76 cells, respectively, acutely infected at a multiplicity of infection (m.o.i.) of 0.01. After” for “After”
as §2

For another data set, the system named is EV-A71. Description: Inhibition of EV-A71-induced cytopathogenicity, MTT method. The conditions noted are these: Enterovirus A, EVA71, 96 h, 50% protection of Vero-76 cells from EV-A71-induced cytopathogenicity, day 4/5 p.i. It counts as cell-based, human enterovirus A71.
The test system of data set [6] is CVB4. Description: Adsorption assay, CVB4 in Vero-76 cells. The conditions noted are these: 20 µM, 2 h at 4 °C, m.o.i. 0.1, Vero-76 cells. In kind it is cell-based, human enterovirus B. On the procedure: (§5) Vero-76 cells were incubated with CVB3 and CVB4 (m.o.i. = 0.1) and derivatives 6 or 7 for 2 h at 4 °C, using compound concentrations of 20 µM. […] LLC-MK2 cells were incubated with E9 and derivative 8 (Figure 3e) under the above-described experimental conditions. To identify the replication stage inhibited by quinoxaline derivatives, we performed a time-of-drug addiction assay (T.O.A.) (Figure 3a–e). Experiments were carried out on CVB3-, CVB4-,and E9-infected cells (m.o.i. = 1) treated with compounds (20 µM) at different step times of infection until 12 h post-infection, followed by virus titer determination by plaque assay.
(§6) Vero-76 and LLC-MK2 cells grown in 24-well plates were infected with CVB3, CVB4, and E9, at an m.o.i. of 0.1, with or without test compounds, and incubated for 120 min at 4 °C. Medium containing unbound virus was then removed, and cells were washed twice with PBS and overlayed with fresh medium. Plaques were counted after 72 h of incubation at 37 °C.

Data set [7] relates to CVB3. Briefly: Adsorption assay, CVB3 in Vero-76 cells. It counts as cell-based, human enterovirus B. The conditions noted are these: 20 µM, 2 h at 4 °C, m.o.i. 0.1, Vero-76 cells. On the procedure: as §5, §6
The subject of data set [8] is CVB3. Briefly: Plaque-reduction assay, CVB3 in Vero-76 cells. It counts as cell-based, human enterovirus B. The protocol:
as §4, with “The activity of compounds against EV-A71 and D68 was based on inhibition of virus-induced cytopathogenicity in HeLa and Vero-76 cells, respectively, acutely infected at a multiplicity of infection (m.o.i.) of 0.01. After” for “After”
as §2

Data set [9] can be described thus: Cytotoxicity, MTT method, mock-infected LLC-MK2 cells. It counts as cell-based. The conditions noted are these: rhesus monkey, concentration reducing viability of mock-infected LLC-MK2 cells by 50%. On the procedure: as §1, §2
The nature of data set [10]: Cytotoxicity, MTT method, mock-infected Vero-76 cells. In kind it is cell-based. The conditions noted are these: African green monkey (Cercopithecus aethiops), concentration reducing viability of mock-infected Vero-76 cells by 50%, read-out: CC50 Vero76. The protocol: as §1, §2
Data set [11] relates to E9. Description: Virus yield reduction assay (YRA), E9 in LLC-MK2 cells. It counts as cell-based, human enterovirus B. The protocol: as §3
Where [12] appears, read: Enterovirus B, CVB4, Vero 76, concentration reducing plaque number by 50%.
Where [13] appears, read: Enterovirus B, CVB4, Vero 76, concentration reducing plaque number by 90%.
Where [14] appears, read: Enterovirus B, CVB3, Vero 76, concentration reducing plaque number by 50%.
The mark [15] stands for this setting: Enterovirus B, CVB3, Vero 76, concentration reducing plaque number by 90%.
Where [16] appears, read: concentration reducing plaque number by 50%.
Where [17] appears, read: concentration reducing plaque number by 90%.

For the compound `CCOC(=O)c1ccc(SCc2ccc3nc(OC)c(OC)nc3c2)cc1` [Compound 6], the CC50 in data set [1], in [9] and in data set [10] was greater than 100 µM in each case. In the data set on CVB3 [2], the “Reduction of CVB3 viral titers (trend over concentrations)” value is recorded as “same trend of reduction in viral loads”. Moreover, the EC50 in the data set on EV-D68 is greater than 100 µM; in the data set with E9 [4] it was greater than 100 µM; in the data set on CVB4 [5] (setting [12]) it was 1.7 µM; in the data set on EV-A71, greater than 100 µM; in the data set with CVB3 [8] (setting [14]) it was 2 to 3 µM; in the data set with CVB3 [8] (setting [16]), 2.5 µM. Moreover, the “Reduction of CVB4 viral titers” value in the data set on CVB4 [3] (0.8 µM) was 2 logs; with CVB4 [3] (4 µM), 2.5 logs. The “Effect on CVB4 viral titers” value in the data set with CVB4 [3] (100 and 20 µM) is reported as “complete suppression”. The EC90 in the data set with CVB4 [5] (setting [13]) was 12 µM; in the data set on CVB3 [8] (setting [15]), 12 µM; in the data set with CVB3 [8] (setting [17]) it was 13 µM. The “CVB4 virus titer in comparison to the untreated infected control” value in the data set on CVB4 [6] is recorded as “detectable reduction of the virus titer”. In addition, in the data set on CVB3 [7], the “CVB3 virus titer in comparison to the untreated infected control” value is listed as “detectable reduction of the virus titer”.
In the case of `COc1nc2ccc(CSc3ccc(C(=O)O)cc3)cc2nc1OC` [Compound 7], the CC50 in data set [1] turned out to be 95 µM; in [9], 100 µM; in data set [10], 100 µM. In addition, the “Reduction in CVB3 viral load” value with CVB3 [2] (4 µM) is given as “one log reduction in viral load”. Further, in the data set on CVB3 [2], the “Reduction of CVB3 viral titers (trend over concentrations)” value is on record as “dose-dependent reduction of viral titers”. The EC50 was greater than 95 µM with EV-D68; greater than 100 µM in the data set with E9 [4]; 1.5 µM with CVB4 [5] (setting [12]); 1.45 µM with CVB4 [5] (setting [16]); greater than 100 µM in the data set with EV-A71; 2 to 3 µM with CVB3 [8] (setting [14]). For the same compound, in the data set on CVB3 [8] (setting [16]), it took 2 µM to reach a half-maximal effect (EC50). Moreover, the “Inhibition of CVB4” value in the data set with CVB4 [3] (0.8 µM) is given as “no significant inhibition”. In the data set on CVB4 [3] (100, 20, and 4 µM), the “Production of CVB4 virus” value is recorded as “completely inhibited”. Further, the EC90 in the data set on CVB4 [5] (setting [13]) is 3 µM; with CVB4 [5] (setting [17]) it was 3.2 µM; in the data set with CVB3 [8] (setting [15]), 14 µM. The “CVB4 virus titer in comparison to the untreated infected control” value in the data set with CVB4 [6] is listed as “detectable reduction of the virus titer”. In the data set on CVB3 [7], the “CVB3 virus titer in comparison to the untreated infected control” value is “detectable reduction of the virus titer”.
For `CCOC(=O)c1ccc(SCc2ccc3nc(OC)c(OC)nc3c2)nc1` [Compound 8], the CC50 in data set [1], in [9] and in data set [10] was greater than 100 µM throughout. Moreover, the “Effect on E9 viral replication” value in the data set on E9 [11] (100 and 20 µM, m.o.i. 0.1, 120 h) is “completely suppressed viral replication”. The “Reduction in E9 viral loads” value with E9 [11] (lower concentrations (below 20 µM)) is reported as “no reduction in viral loads”. Moreover, the concentration for a half-maximal effect (EC50) in the data set with EV-D68 was 50 µM; in the data set on E9 [4], 6 µM; with CVB4 [5] (setting [12]) it was greater than 100 µM; with EV-A71, greater than 100 µM; in the data set with CVB3 [8] (setting [14]), greater than 100 µM. Moreover, the 90% effect concentration (EC90) in the data set with E9 [4] (setting [17]) is 16 µM.
`COc1nc2ccc(CSc3ccc(C(=O)O)cn3)cc2nc1OC` [Compound 9]: the CC50 is greater than 100 µM in [1], 100 µM in [9] and 100 µM in data set [10]. For the same compound, the EC50 is 70 µM in the data set with EV-D68; 55 µM with E9 [4]; greater than 100 µM in the data set with CVB4 [5] (setting [12]); greater than 100 µM in the data set on EV-A71; 100 µM in the data set on CVB3 [8] (setting [14]).
With `C[C@@]1(O)[C@H](O)[C@@H](CO)O[C@H]1n1ccc(N)nc1=O` [NM107, 2′-C-methylcytidine, reference compound], the figures for the EC50 in the data set on EV-A71 and in the data set on CVB3 [8] (setting [14]) were 6 ± 1 µM and 29 ± 3 µM, respectively. For the same compound, the CC50 in data set [10] was greater than 100 µM.
For `Cc1cc(CCCOc2c(C)cc(-c3noc(C(F)(F)F)n3)cc2C)on1` [PLe, Pleconaril, reference compound], the CC50 in [1], in data set [9] and in data set [10] was greater than 100 µM in each case. In addition, the values for the EC50 in the data set with EV-D68, in the data set with E9 [4] and in the data set on CVB4 [5] (setting [12]) were 0.4 ± 0.2 µM, 0.1 ± 0.05 µM and 2 ± 1 µM, respectively.

The record behind these values is article PMC8878107, “Human Enterovirus B: Selective Inhibition by Quinoxaline Derivatives and Bioinformatic RNA-Motif Identification as New Targets” (Pharmaceuticals, 2022).
